One block for each compound: values may come before it.
Tested on: 997726-040-R-J2-PDC tumor spheroids, viability
Test: Anticancer human tumor 997726-040-R-J2-PDC patient-derived squamous cell lung carcinoma cell line growth inhibition [PI3K]
Settings: spheroids with HUVEC and MSC; for IC50: curve of first compound; for viability, T/C: stronger effect = lower value
Outline: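 Tumor cells were combined with HUVEC and MSCs into spheroids, then dosed with PI3K-inhibitor combinations over half-log ranges capped near clinical Cmax or 10 microM.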

[1] = second compound 0.0316 µM, first compound 0.0316 µM
[2] = second compound 0.0316 µM, first compound 0.1 µM
[3] = second compound 0.0316 µM, first compound 0.316 µM
[4] = second compound 0.0316 µM, first compound 1 µM
[5] = second compound 0.0316 µM, first compound 3.16 µM
[6] = second compound 0.0316 µM, first compound 10 µM
[7] = second compound 0.1 µM, first compound 0.0316 µM
[8] = second compound 0.1 µM, first compound 0.1 µM
[9] = second compound 0.1 µM, first compound 0.316 µM
[10] = second compound 0.1 µM, first compound 1 µM
[11] = second compound 0.1 µM, first compound 3.16 µM
[12] = second compound 0.1 µM, first compound 10 µM
[13] = second compound 0.316 µM, first compound 0.0316 µM
[14] = second compound 0.316 µM, first compound 0.1 µM
[15] = second compound 0.316 µM, first compound 0.316 µM
[16] = second compound 0.316 µM, first compound 1 µM
[17] = second compound 0.316 µM, first compound 3.16 µM
[18] = second compound 0.316 µM, first compound 10 µM
[19] = second compound 1 µM, first compound 0.0316 µM
[20] = second compound 1 µM, first compound 0.1 µM
[21] = second compound 1 µM, first compound 0.316 µM
[22] = second compound 1 µM, first compound 1 µM
[23] = second compound 1 µM, first compound 3.16 µM
[24] = second compound 1 µM, first compound 10 µM
[25] = second compound 3.16 µM, first compound 0.0316 µM
[26] = second compound 3.16 µM, first compound 0.1 µM
[27] = second compound 3.16 µM, first compound 0.316 µM
[28] = second compound 3.16 µM, first compound 1 µM
[29] = second compound 3.16 µM, first compound 3.16 µM
[30] = second compound 3.16 µM, first compound 10 µM
[31] = second compound 10 µM, first compound 0.0316 µM
[32] = second compound 10 µM, first compound 0.1 µM
[33] = second compound 10 µM, first compound 0.316 µM
[34] = second compound 10 µM, first compound 1 µM
[35] = second compound 10 µM, first compound 3.16 µM
[36] = second compound 10 µM, first compound 10 µM
[37] = second compound 0.0316 µM, first compound 0.00316 µM
[38] = second compound 0.0316 µM, first compound 0.01 µM
[39] = second compound 0.1 µM, first compound 0.00316 µM
[40] = second compound 0.1 µM, first compound 0.01 µM
[41] = second compound 0.316 µM, first compound 0.00316 µM
[42] = second compound 0.316 µM, first compound 0.01 µM
[43] = second compound 1 µM, first compound 0.00316 µM
[44] = second compound 1 µM, first compound 0.01 µM
[45] = second compound 3.16 µM, first compound 0.00316 µM
[46] = second compound 3.16 µM, first compound 0.01 µM
[47] = second compound 10 µM, first compound 0.00316 µM
[48] = second compound 10 µM, first compound 0.01 µM
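Also: spheroids exposed to compounds for seven days before readout.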

IC50 (second compound 0.0316 µM): 388 nM | IC50 (second compound 0.1 µM): 400 nM | IC50 (second compound 0.316 µM): 398 nM | IC50 (second compound 1 µM): 297 nM | IC50 (second compound 3.16 µM): 278 nM | IC50 (second compound 10 µM): 55.6 nM
SMILES: CC(C)NCC(C(=O)N1CCN(c2ncnc3c2C(C)CC3O)CC1)c1ccc(Cl)cc1 (stereo not drawn) + CC(Nc1ncnc2nc[nH]c12)c1cc2cccc(Cl)c2c(=O)n1-c1ccccc1
viability, T/C [1]: 82.7% | viability, T/C [2]: 74.3% | viability, T/C [3]: 54.4% | viability, T/C [4]: 29.7% | viability, T/C [5]: 14.6% | viability, T/C [6]: 10.8% | viability, T/C [7]: 79.5% | viability, T/C [8]: 85.4% | viability, T/C [9]: 50.1% | viability, T/C [10]: 31.6% | viability, T/C [11]: 12.7% | viability, T/C [12]: 10.7% | viability, T/C [13]: 87.1% | viability, T/C [14]: 87.3% | viability, T/C [15]: 53.1% | viability, T/C [16]: 27.4% | viability, T/C [17]: 15.5% | viability, T/C [18]: 9.73% | viability, T/C [19]: 88.9% | viability, T/C [20]: 69.2% | viability, T/C [21]: 48.7% | viability, T/C [22]: 32% | viability, T/C [23]: 15% | viability, T/C [24]: 9.4% | viability, T/C [25]: 80.1% | viability, T/C [26]: 69.6% | viability, T/C [27]: 46.3% | viability, T/C [28]: 28.3% | viability, T/C [29]: 15.3% | viability, T/C [30]: 10.8% | viability, T/C [31]: 54.7% | viability, T/C [32]: 42.8% | viability, T/C [33]: 41.8% | viability, T/C [34]: 27.3% | viability, T/C [35]: 13.7% | viability, T/C [36]: 9.38%

IC50 (second compound 0.0316 µM): > 1000 nM | IC50 (second compound 0.1 µM): > 1000 nM | IC50 (second compound 0.316 µM): > 1000 nM | IC50 (second compound 1 µM): > 1000 nM | IC50 (second compound 3.16 µM): > 1000 nM | IC50 (second compound 10 µM): 5.26 nM
SMILES: CCN1CCN(Cc2ccc(Nc3ncc(F)c(-c4cc(F)c5nc(C)n(C(C)C)c5c4)n3)nc2)CC1 + CC(Nc1ncnc2nc[nH]c12)c1cc2cccc(Cl)c2c(=O)n1-c1ccccc1
viability, T/C [37]: 95.3% | viability, T/C [38]: 82.4% | viability, T/C [1]: 75.6% | viability, T/C [2]: 74.4% | viability, T/C [3]: 67.2% | viability, T/C [4]: 76.8% | viability, T/C [39]: 81.7% | viability, T/C [40]: 91.1% | viability, T/C [7]: 73.1% | viability, T/C [8]: 68.3% | viability, T/C [9]: 74.9% | viability, T/C [10]: 82.7% | viability, T/C [41]: 87.5% | viability, T/C [42]: 97.1% | viability, T/C [13]: 73.2% | viability, T/C [14]: 68.7% | viability, T/C [15]: 69.8% | viability, T/C [16]: 78.4% | viability, T/C [43]: 79.1% | viability, T/C [44]: 78.4% | viability, T/C [19]: 59.9% | viability, T/C [20]: 61.5% | viability, T/C [21]: 61.4% | viability, T/C [22]: 68.9% | viability, T/C [45]: 70.7% | viability, T/C [46]: 66.1% | viability, T/C [25]: 56.3% | viability, T/C [26]: 52.1% | viability, T/C [27]: 60.1% | viability, T/C [28]: 66% | viability, T/C [47]: 51.5% | viability, T/C [48]: 50.9% | viability, T/C [31]: 41.2% | viability, T/C [32]: 40.9% | viability, T/C [33]: 40.6% | viability, T/C [34]: 47.1%

IC50 (second compound 0.0316 µM): > 10000 nM | IC50 (second compound 0.1 µM): > 10000 nM | IC50 (second compound 0.316 µM): > 10000 nM | IC50 (second compound 1 µM): > 10000 nM | IC50 (second compound 3.16 µM): > 10000 nM | IC50 (second compound 10 µM): 4740 nM
SMILES: C[C@@H](NC(=O)c1ncnc(N)c1Cl)c1ncc(C(=O)Nc2cc(C(F)(F)F)c(Cl)cn2)s1 + CC(Nc1ncnc2nc[nH]c12)c1cc2cccc(Cl)c2c(=O)n1-c1ccccc1
viability, T/C [1]: 123% | viability, T/C [2]: 112% | viability, T/C [3]: 113% | viability, T/C [4]: 120% | viability, T/C [5]: 97.2% | viability, T/C [6]: 84.1% | viability, T/C [7]: 108% | viability, T/C [8]: 129% | viability, T/C [9]: 118% | viability, T/C [10]: 118% | viability, T/C [11]: 103% | viability, T/C [12]: 68.7% | viability, T/C [13]: 114% | viability, T/C [14]: 114% | viability, T/C [15]: 128% | viability, T/C [16]: 119% | viability, T/C [17]: 96.8% | viability, T/C [18]: 70.1% | viability, T/C [19]: 114% | viability, T/C [20]: 102% | viability, T/C [21]: 108% | viability, T/C [22]: 113% | viability, T/C [23]: 91.5% | viability, T/C [24]: 72.8% | viability, T/C [25]: 97% | viability, T/C [26]: 90.9% | viability, T/C [27]: 83.8% | viability, T/C [28]: 79.2% | viability, T/C [29]: 79.5% | viability, T/C [30]: 61.5% | viability, T/C [31]: 61.4% | viability, T/C [32]: 62.4% | viability, T/C [33]: 60.2% | viability, T/C [34]: 59.5% | viability, T/C [35]: 52.3% | viability, T/C [36]: 43.9%

IC50 (second compound 0.0316 µM): > 100 nM | IC50 (second compound 0.1 µM): > 100 nM | IC50 (second compound 0.316 µM): > 100 nM | IC50 (second compound 1 µM): > 100 nM | IC50 (second compound 3.16 µM): > 100 nM | IC50 (second compound 10 µM): 80.4 nM
SMILES: Cn1ncnc1[C@H]1c2n[nH]c(=O)c3cc(F)cc(c23)N[C@@H]1c1ccc(F)cc1 + CC(Nc1ncnc2nc[nH]c12)c1cc2cccc(Cl)c2c(=O)n1-c1ccccc1
viability, T/C (second compound 0.0316 µM, first compound 0.000316 µM): 101% | viability, T/C (second compound 0.0316 µM, first compound 0.001 µM): 99.9% | viability, T/C [37]: 102% | viability, T/C [38]: 112% | viability, T/C [1]: 99.7% | viability, T/C [2]: 96.8% | viability, T/C (second compound 0.1 µM, first compound 0.000316 µM): 96.5% | viability, T/C (second compound 0.1 µM, first compound 0.001 µM): 99.7% | viability, T/C [39]: 94.4% | viability, T/C [40]: 102% | viability, T/C [7]: 98.4% | viability, T/C [8]: 97.1% | viability, T/C (second compound 0.316 µM, first compound 0.000316 µM): 93.5% | viability, T/C (second compound 0.316 µM, first compound 0.001 µM): 99.4% | viability, T/C [41]: 98% | viability, T/C [42]: 101% | viability, T/C [13]: 97.6% | viability, T/C [14]: 99.3% | viability, T/C (second compound 1 µM, first compound 0.000316 µM): 100% | viability, T/C (second compound 1 µM, first compound 0.001 µM): 95.3% | viability, T/C [43]: 90.4% | viability, T/C [44]: 86.2% | viability, T/C [19]: 86.2% | viability, T/C [20]: 89.1% | viability, T/C (second compound 3.16 µM, first compound 0.000316 µM): 70.3% | viability, T/C (second compound 3.16 µM, first compound 0.001 µM): 77.9% | viability, T/C [45]: 69.7% | viability, T/C [46]: 65.5% | viability, T/C [25]: 89.9% | viability, T/C [26]: 67.2% | viability, T/C (second compound 10 µM, first compound 0.000316 µM): 54.8% | viability, T/C (second compound 10 µM, first compound 0.001 µM): 61.6% | viability, T/C [47]: 55.3% | viability, T/C [48]: 54% | viability, T/C [31]: 55% | viability, T/C [32]: 48.9%
